Test results taken from patent publication US20190209506A1, “METHODS OF REDUCING OR PREVENTING OXIDATION OF LDL OR LIPID MEMBRANES IN A SUBJECT IN NEED THEREOF” (Amarin Pharmaceuticals Ireland Limited, priority 2018, published 2019).

What was measured:
[1] = system: rat renal glomerular endothelial cells; experiment: NO and ONOO^− release ex vivo from glomerular endothelial cells exposed to oxLDL and high glucose (Example 13); type: cell-based; settings: 10.0 μM, 1 hr; oxLDL 11 mg/dL and glucose 300 mg/dL; vs vehicle
Method: Healthy male Wistar Kyoto (WKY) rats, aged 7-9 weeks and weighing 250±20 g, were obtained from inbred colonies (National Institutes of Health, Bethesda, Md.). Animals were housed in a controlled environment that provided food and water ad libitum prior to the study. […] Animals were sacrificed and tissue samples obtained immediately for experimentation. All procedures were conducted in accordance with standard Institutional Animal Care and Use Committee guidelines and conformed to the Guide for the Care and Use of Laboratory Animals published by the US National Institutes of Health.
Immediately after sacrificing the rats, kidneys were removed, cut into 100 μm sections and transferred to a separate organ chamber containing Dulbecco's phosphate buffered saline ([…]) and […] at pH 7.4. […]
The NO/ONOO− nanosensor was positioned near the surface of the endothelial cells using a computer-controlled M3301 micromanipulator (x-y-z resolution of 0.2 μm) and microscope (both from World Precision Instruments, Berlin, Germany) fitted with a CD camera. Each analyte was measured from amperograms and standard calibration curves collected under maximum current. […] Changes in current (proportional to the molar concentrations of NO or ONOO^− released) were monitored continuously immediately following CaI stimulation.

[2] = system: human LDL; experiment: Copper-induced oxidation of unfractionated LDL, TBARS (Example 7); type: biochemical; settings: 1 hour
Method: An experiment to study the antioxidant effect of EPA in LDL and small dense LDL (“sdLDL”) was performed. LDL and sdLDL were isolated from the plasma of healthy volunteers by iodixanol density gradient ultracentrifugation, and adjusted to a final apolipoprotein concentration of 2 mg/mL. […] Vitamin E was also incubated with sample aliquots as a positive control.

[3] = system: human sdLDL; experiment: Copper-induced sdLDL oxidation, TBARS (Example 7); type: biochemical
Method: An experiment to study the antioxidant effect of EPA in LDL and small dense LDL (“sdLDL”) was performed. LDL and sdLDL were isolated from the plasma of healthy volunteers by iodixanol density gradient ultracentrifugation, and adjusted to a final apolipoprotein concentration of 2 mg/mL. […] Lipid oxidation was initiated with 10 μM CuSO4 and monitored by the colorimetric detection of thiobarbituric acid reactive substances (TBARS) for 1 hr. Vitamin E was also incubated with sample aliquots as a positive control.

[4] = Glucose-induced membrane lipid peroxidation (LOOH, CHOD-iodide assay) in DLPC/cholesterol vesicles (Examples 4, 5); type: biochemical; settings: 1.0 μM; glucose 200 mg/dL; 96 hours
Method: All test compounds were further diluted in ethanol or aqueous buffer as needed. Glucose was prepared in saline buffer (0.5 mM HEPES, 154 mM NaCl, pH 7.3) at 11.0 mM (200 mg/dL). CHOD-iodide color reagent (stock) was prepared, with slight modification, as described by from El-Saadani et al. (J. […] Samples were shell-dried under nitrogen gas and placed under vacuum for 1 h to remove residual solvent. […] Lipid suspensions were then vortexed for 3 min at ambient temperature to form MLVs. All MLV samples were subjected to time-dependent autoxidation by incubating at 37° C. in an uncovered, shaking water bath. This method allows lipid peroxidation to occur gradually without requiring the use of exogenous initiators. Small aliquots (5-100 μL) of each sample were removed, immediately following MLV preparation (0 hour) and after exposing samples to oxidative conditions for 72 or 96 hour, and combined with 1.0 mL of activated CHOD-iodide color reagent. Aliquot volume was reduced with each successive time point to ensure that spectrophotometric readings were within the optimal adsorption range. Test samples were covered and incubated in darkness at room temperature for at least 4 hr. Sample absorbances were then measured against a CHOD blank at 365 nm using a Beckman DU-640 spectrophotometer. The CHOD colorimetric assay is based on the oxidation of iodide (I^−) by lipid hydroperoxide (LOOH) to form triiodide the quantity of which is directly proportional to the amount of LOOH present in the lipid sample. The molar absorptivity (ε) of I3^− is 2.46×10^4 M^−1 cm^−1 at 365 nm. […] All MLV samples were subjected to time-dependent autoxidation by incubating at 37° C. in an uncovered, shaking water bath. This method allows lipid peroxidation to occur gradually without requiring the use of exogenous initiators. Small aliquots (5-100 μL) of each sample were removed, immediately following MLV preparation (0 hr) and after exposing samples to oxidative conditions for 72 or 96 hr, and combined with 1.0 mL of activated CHOD-iodide color reagent. Aliquot volume was reduced with each successive time point to ensure that spectrophotometric readings were within the optimal adsorption range. Test samples were covered and incubated in darkness at room temperature for at least 4 hr. Sample absorbances were then measured against a CHOD blank at 365 nm using a Beckman DU-640 spectrophotometer. […] The molar absorptivity (ε) of I3^− is 2.46×10^4 M^−1 cm^−1 at 365 nm.

[5] = biological target: T1, HMG-CoA reductase (Homo sapiens, UniProt P04035); settings: metabolized by hepatic cytochrome P450; cited from earlier work
T1 sequence (P04035 1-888): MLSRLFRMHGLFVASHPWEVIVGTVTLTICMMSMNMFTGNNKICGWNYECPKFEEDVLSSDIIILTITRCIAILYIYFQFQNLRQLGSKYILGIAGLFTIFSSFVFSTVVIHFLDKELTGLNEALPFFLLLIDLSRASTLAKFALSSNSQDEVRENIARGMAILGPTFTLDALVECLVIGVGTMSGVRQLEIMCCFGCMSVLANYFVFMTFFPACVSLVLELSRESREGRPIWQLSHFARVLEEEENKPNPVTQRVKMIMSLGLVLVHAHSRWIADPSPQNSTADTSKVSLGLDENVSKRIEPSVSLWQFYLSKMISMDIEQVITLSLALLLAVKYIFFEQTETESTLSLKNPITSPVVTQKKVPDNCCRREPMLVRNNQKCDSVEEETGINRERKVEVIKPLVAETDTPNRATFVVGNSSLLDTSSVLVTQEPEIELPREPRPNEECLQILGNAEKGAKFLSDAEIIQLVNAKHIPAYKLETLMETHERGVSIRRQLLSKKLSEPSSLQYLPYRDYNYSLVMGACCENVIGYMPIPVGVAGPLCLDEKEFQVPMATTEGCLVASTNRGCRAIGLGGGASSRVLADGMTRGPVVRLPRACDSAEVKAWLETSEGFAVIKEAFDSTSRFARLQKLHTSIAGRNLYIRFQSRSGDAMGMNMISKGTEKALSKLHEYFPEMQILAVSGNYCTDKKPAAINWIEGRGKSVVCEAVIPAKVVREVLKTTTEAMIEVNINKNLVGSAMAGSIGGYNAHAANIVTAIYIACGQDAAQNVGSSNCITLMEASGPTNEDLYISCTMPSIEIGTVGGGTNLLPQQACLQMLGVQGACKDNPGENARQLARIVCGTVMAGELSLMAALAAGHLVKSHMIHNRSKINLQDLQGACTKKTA

Structure (SMILES)	increase of NO release [1] [%]	reduction of ONOO^− release [1] [%]	effect on unfractionated LDL oxidation, dose dependence [2]	inhibition of sdLDL oxidation ([3]; 0.5 μM, 1 hr) [%]	inhibition of sdLDL oxidation ([3]; 1.0 μM, 1 hr, vs vehicle) [%]	inhibition of sdLDL oxidation ([3]; highest dose, 1 hr) [%]	antioxidant effect (LOOH formation) [4]	effect on unfractionated LDL oxidation ([2]; 10 μM)	effect on sdLDL oxidation compared to vehicle-treated controls ([3]; 10 μM, 1 hour)	inhibition of TBARS formation / sdLDL oxidation ([3]; 10 μM, 1 hr, vs vehicle) [%]	share of circulating HMG-CoA reductase inhibitory activity accounted for by active metabolites [5]
CC(C)c1c(C(=O)Nc2ccccc2O)c(-c2ccccc2)c(-c2ccc(F)cc2)n1CC[C@@H](O)C[C@@H](O)CC(=O)O [ATM, Atorvastatin ortho- (o-) hydroxy (active) metabolite]	205	25	significant and dose-dependent inhibition of unfractionated LDL oxidation beginning at 1.0 μM	5±5	18±5	90±2	separate and potent antioxidant effects	–	–	–	–
CC(C)c1c(C(=O)Nc2ccccc2)c(-c2ccccc2)c(-c2ccc(F)cc2)n1CC[C@@H](O)C[C@@H](O)CC(=O)O [atorvastatin]	–	–	–	–	–	–	–	did not have any significant antioxidant activity	did not have any significant antioxidant activity	0.1±7	approximately 70%
